Test system: 5-hydroxy tryptamine induced bronchoconstriction
Assay: Bronchodilator activity: inhibition of 5-hydroxy tryptamine induced bronchoconstriction (Konzett-Rossler preparation)
Assay type: in vivo
Conditions: Cavia porcellus, iv; anaesthetised, artificially respired guinea pig
Protocol: The compounds were examined for their ability to inhibit 5-hydroxy tryptamine induced bronchoconstriction in the anaethetised, artifically respired guinea pig (Konzett-Rossler preparation). The compounds were administered intravenously.

Structure (SMILES)	ED50 [µg/kg]
CCCCCCC(C)(O)CCN1C(=O)N(C)C(=O)C1CCCCCCCC(C)O (centres unmarked) [Compound 2]	5.5
CCCCCCC(C)(O)CCN1C(=O)N(C)C(=O)C1C/C=C\CCCCC(C)O (centres unmarked) [Compound 3]	3.6
